Assays:
[1] = DSC of the phase transition of pure SOPC with peptide; settings: cooling scans, SOPC without peptide 5 °C
[2] = Formation of anhydrous cholesterol crystals seen by DSC

| Substance | transition temperature of pure SOPC ([1]; 5 mol% peptide) | transition temperature of pure SOPC ([1]; 10 mol% peptide) | transition temperature of pure SOPC ([1]; 15 mol% peptide) | formation of anhydrous cholesterol crystals ([2]; any of the SOPC/cholesterol ratios) | formation of cholesterol crystals ([2]; 6/4 ratio of SOPC/cholesterol) | formation of cholesterol crystals ([2]; mixtures with 30% cholesterol) |
| --- | --- | --- | --- | --- | --- | --- |
| LWGIG | 4.7 °C | 4.7 °C | 4.5 °C | no formation of anhydrous cholesterol crystals | – | – |
| Ac-GWGIK-NH2 [GWGIK, N-acetyl-GWGIK-amide] | – | – | – | – | no formation of cholesterol crystals | small peak corresponding to cholesterol crystals |

From paper PMC2667962 (Biochemistry, 2008)
